# Measurements published in patent US10519099B2, “Cystobactamides” (priority 2014, dated 2019).
# Where two headings read alike, the source gives them in different places.
# Columns and labels:
# [1] = tested on: Escherichia coli ATCC25922; test: MIC microdilution, E. coli ATCC25922; assay type: cell-based; conditions: ATCC25922, larger panel, read-out: MIC Escherichia coli ATCC25922
# Experimental: (§1) Indicator strains used in susceptibility assays were either part of our strain collection or purchased from the German Collection of Microorgansims and Cell Cultures (DSMZ) or from the American Type Culture Collection (ATCC). E. coli strain WT and corresponding E. coli mutants were kindly provided by Prof. Dr. P. Heisig, Pharmaceutical Biology and Microbiology, University of Hamburg. E. coli strains JW0401-1 (WT) and Δtsx were obtained from the CGSC collection.
# (§2) MIC values were determined in standardized microdilution assays. Overnight cultures were diluted in the appropriate growth medium to achieve an inoculum of 10^4-10^6 cfu/mL. Yeasts were grown in Myc medium (1% phytone peptone, 1% glucose, 50 mM HEPES, pH 7.0), S. pneumonia and Enterococcus spp. in tryptic soy broth (TSB: 1.7% peptone casein, 0.3% peptone soymeal, 0.25% glucose, 0.5% NaCl, 0.25% K2HPO4; pH 7.3); M. smegmatis in Middlebrook 7H9 medium supplemented with 10% Middlebrook ADC enrichment and 2 ml/I glycerol). All other listed bacteria were grown in Müller-Hinton broth (0.2% beef infusion solids, 1.75% casein hydrolysate, 0.15% starch, pH 7.4). […] Growth inhibition was assessed by visual inspection and the MIC was defined as the lowest concentration of compound that inhibited visible growth.
# E. coli DSM-1116 = test: MIC microdilution, E. coli DSM-1116; assay type: cell-based, Escherichia coli; conditions: Escherichia coli, DSM1116
# Experimental: as §1
# (§3) MIC values were determined in standardized microdilution assays. Overnight cultures were diluted in the appropriate growth medium to achieve an inoculum of 10^4-10^6 cfu/mL. Yeasts were grown in Myc medium (1% phytone peptone, 1% glucose, 50 mM HEPES, pH 7.0), S. pneumonia and Enterococcus spp. in tryptic soy broth (TSB: 1.7% peptone casein, 0.3% peptone soymeal, 0.25% glucose, 0.5% NaCl, 0.25% K2HPO4; pH 7.3); M. smegmatis in Middlebrook 7H9 medium supplemented with 10% Middlebrook ADC enrichment and 2 ml/I glycerol). All other listed bacteria were grown in Müller-Hinton broth (0.2% beef infusion solids, 1.75% casein hydrolysate, 0.15% starch, pH 7.4). Cystobactamides and reference drugs were added directly to the cultures in sterile 96-well plates as duplicates and serial dilutions were prepared. Microorganisms were grown on a microplate shaker (750 rpm, 30-37° C., 18-48 h), except S. pneumonia, which was grown at non-shaking conditions (37° C., 5% CO2, 18 h). Growth inhibition was assessed by visual inspection and the MIC was defined as the lowest concentration of compound that inhibited visible growth.
# [2] = tested on: P. aeruginosa DSM-24600 (ESBL); test: MIC microdilution, P. aeruginosa DSM-24600 (ESBL); assay type: cell-based, Pseudomonas aeruginosa; conditions: Pseudomonas aeruginosa, DSM24600
# Experimental: as §1, §3
# [3] = tested on: Enterococcus faecium DSM-20477; test: MIC microdilution, Enterococcus faecium DSM-20477; assay type: cell-based; conditions: Enterococcus faecium, DSM20477; larger panel; read-out: MIC Enterococcus faecium DSM-20477
# Experimental: as §1, §3
# [4] = tested on: E. coli DSM-26863 (tolC3); test: MIC microdilution, E. coli DSM-26863 (tolC3); assay type: cell-based, Escherichia coli; conditions: Escherichia coli
# Experimental: as §1, §3
# [5] = tested on: Escherichia coli ATCC35218; test: MIC microdilution, E. coli ATCC35218; assay type: cell-based; conditions: ATCC35218, larger panel, read-out: MIC Escherichia coli ATCC35218
# Experimental: as §1, §2
# [6] = tested on: Burkholderia cenocepacia DSM-16553; test: MIC microdilution, Burkholderia cenocepacia DSM-16553; assay type: cell-based; conditions: DSM16553, larger panel, read-out: MIC Burkholderia cenocepacia DSM-16553
# Experimental: as §1, §2
# [7] = tested on: Mycobacterium smegmatis ATCC700084; test: MIC microdilution, Mycobacterium smegmatis ATCC700084; assay type: cell-based; conditions: Mycolicibacterium smegmatis, ATCC700084; larger panel; read-out: MIC Mycobacterium smegmatis ATCC700084
# Experimental: as §1, §2
# E. coli WT = test: MIC microdilution, E. coli WT; assay type: cell-based, Escherichia coli; conditions: Escherichia coli
# Experimental: as §1, §3
# [8] = tested on: Streptococcus pneumoniae DSM-20566; test: MIC microdilution, Streptococcus pneumoniae DSM-20566; assay type: cell-based; conditions: DSM20566, larger panel, read-out: MIC Streptococcus pneumoniae DSM-20566
# Experimental: as §1, §2
# Bacillus subtilis DSM-10 = test: MIC microdilution, Bacillus subtilis DSM-10; assay type: cell-based; conditions: DSM10, larger panel, read-out: MIC Bacillus subtilis DSM-10
# Experimental: as §1, §2
# [9] = tested on: Pseudomonas aeruginosa PA14; test: MIC microdilution, P. aeruginosa PA14; assay type: cell-based; conditions: Pseudomonas aeruginosa, PA14; larger panel; read-out: MIC Pseudomonas aeruginosa PA14
# Experimental: as §1, §3
# [10] = tested on: Citrobacter freundii DSM-30039; test: MIC microdilution, C. freundii DSM-30039; assay type: cell-based; conditions: Citrobacter freundii, DSM30039
# Experimental: as §1, §3
# [11] = tested on: Escherichia coli MI [gyrA(S83L)]; test: MIC microdilution, E. coli MI [gyrA(S83L)]; assay type: cell-based; conditions: read-out: MIC Escherichia coli MI [gyrA(S83L)]
# Experimental: as §1, §2
# [12] = tested on: Pseudomonas aeruginosa ATCC27853; test: MIC microdilution, P. aeruginosa ATCC27853; assay type: cell-based; conditions: Pseudomonas aeruginosa, ATCC27853; larger panel; read-out: MIC Pseudomonas aeruginosa ATCC27853
# Experimental: as §1, §3
# [13] = tested on: E. coli WT-3 [gyrA(S83L, D87G)]; test: MIC microdilution, E. coli WT-3 [gyrA(S83L, D87G)]; assay type: cell-based, Escherichia coli; conditions: Escherichia coli
# Experimental: as §1, §3
# [14] = tested on: Staphylococcus epidermidis DSM-28765; test: MIC microdilution, Staphylococcus epidermidis DSM-28765; assay type: cell-based; conditions: Staphylococcus epidermidis, DSM28765; larger panel; read-out: MIC Staphylococcus epidermidis DSM-28765
# Experimental: as §1, §3
# [15] = tested on: E. coli WT-III [marRΔ74bp]; test: MIC microdilution, E. coli WT-III [marRΔ74bp]; assay type: cell-based, Escherichia coli
# Experimental: as §1, §3
# [16] = tested on: Candida albicans DSM-1665; test: MIC microdilution, Candida albicans DSM-1665; assay type: cell-based; conditions: DSM1665, larger panel, read-out: MIC Candida albicans DSM-1665
# Experimental: as §1, §2
# [17] = tested on: Micrococcus luteus DSM-1790; test: MIC microdilution, Micrococcus luteus DSM-1790; assay type: cell-based; conditions: DSM1790, larger panel, read-out: MIC Micrococcus luteus DSM-1790
# Experimental: as §1, §2
# [18] = tested on: Escherichia coli MI-4 [gyrA(S83L), parC(S80I)]; test: MIC microdilution, E. coli MI-4 [gyrA(S83L), parC(S80I)]; assay type: cell-based; conditions: read-out: MIC Escherichia coli MI-4 [gyrA(S83L), parC(S80I)]
# Experimental: as §1, §2
# [19] = tested on: Pseudomonas aeruginosa DSM-24599; test: MIC microdilution, P. aeruginosa DSM-24599; assay type: cell-based; conditions: Pseudomonas aeruginosa, DSM24599; larger panel; read-out: MIC Pseudomonas aeruginosa DSM-24599
# Experimental: as §1, §3
# [20] = tested on: Escherichia coli DSM-12242 (NAL^R); test: MIC microdilution, E. coli DSM-12242 (NAL^R); assay type: cell-based; conditions: DSM12242, read-out: MIC Escherichia coli DSM-12242 (NAL^R)
# Experimental: as §1, §2
# [21] = tested on: Chromobacterium violaceum DSM-30191; test: MIC microdilution, Chromobacterium violaceum DSM-30191; assay type: cell-based; conditions: DSM30191, larger panel, read-out: MIC Chromobacterium violaceum DSM-30191
# Experimental: as §1, §2
smiles,measurement,setting,value
"O=C(O)c1cn(C2CC2)c2cc(N3CCNCC3)c(F)cc2c1=O [CP, Ciprofloxacin, reference compound]",MIC,[1],0.006 µg/mL
same,MIC,"E. coli DSM-1116; Gram-negative set, read-out: MIC E. coli DSM-1116",0.01 µg/mL
same,MIC,"E. coli DSM-1116; larger panel, read-out: MIC Escherichia coli DSM-1116",0.013 µg/mL
same,MIC,"[2]; Gram-negative set, read-out: MIC P. aeruginosa DSM-24600 (ESBL)",3.2 µg/mL
same,MIC,"[2]; larger panel, read-out: MIC Pseudomonas aeruginosa DSM-24600 (ESBL)",3.2 µg/mL
same,MIC,[3],> 6.4 µg/mL
same,MIC,"[4]; DSM26863, read-out: MIC E. coli DSM-26863 (tolC3)",≤ 0.003 µg/mL
same,MIC,"[4]; DSM26863, read-out: MIC Escherichia coli DSM-26863 (tolC3)",0.003 µg/mL
same,MIC,[5],0.013 µg/mL
same,MIC,[6],> 6.4 µg/mL
same,MIC,[7],0.2 to 0.4 µg/mL
same,MIC,"E. coli WT; Gram-negative set, read-out: MIC E. coli WT",0.013 µg/mL
same,MIC,"E. coli WT; larger panel, read-out: MIC Escherichia coli WT",0.013 µg/mL
same,MIC,[8],0.8 to 1.6 µg/mL
same,MIC,Bacillus subtilis DSM-10,0.1 µg/mL
same,MIC,[9],0.1 µg/mL
same,MIC,"[10]; Gram-negative set, read-out: MIC C. freundii DSM-30039",0.003 µg/mL
same,MIC,"[10]; larger panel, read-out: MIC Citrobacter freundii DSM-30039",0.003 µg/mL
same,MIC,[11],0.4 to 0.8 µg/mL
same,MIC,[12],0.1 to 0.2 µg/mL
same,MIC,"[13]; read-out: MIC E. coli WT-3 [gyrA(S83L, D87G)]",0.8 µg/mL
same,MIC,"[13]; read-out: MIC Escherichia coli WT-3 [gyrA(S83L, D87G)]",0.8 to 1.6 µg/mL
same,MIC,[14],0.2 µg/mL
same,MIC E. coli WT-III [marRΔ74bp],[15]; Gram-negative set,0.1 µg/mL
same,MIC Escherichia coli WTIII (marRΔ74bp),[15]; larger panel,0.1 µg/mL
same,MIC,[16],> 6.4 µg/mL
same,MIC,[17],0.8 to 1.6 µg/mL
same,MIC,[18],0.8 µg/mL
same,MIC,[19],> 6.4 µg/mL
same,MIC,[20],0.05 µg/mL
same,MIC,[21],0.006 to 0.013 µg/mL
